# Measurements published in patent US3940382A, “1,2'-Di-N-substituted kanamycin B compounds” (Zaidan Hojin Biseibutsu Kagaku Kenkyu Kai, priority 1973, dated 1976).
# Tests used:
# [1] = system: kanamycin-resistant bacteria; conditions: some kanamycin-resistant bacteria; cited from earlier work
# [2] = system: ribostamycin-resistant bacteria; conditions: some ribostamycin-resistant bacteria; cited from earlier work
# [3] = system: Staphylococcus aureus Smith; assay: MIC, serial dilution on nutrient agar; type: cell-based; conditions: Staphylococcus aureus Smith; nutrient agar, 37°C, 18 hours; read-out: Minimum Inhibitory Concentrations
# [4] = system: Staphylococcus aureus FDA 209P; assay: MIC, serial dilution on nutrient agar; type: cell-based; conditions: FDA209P; Staphylococcus aureus FDA 209P; nutrient agar, 37°C, 18 hours; read-out: Minimum Inhibitory Concentrations
# [5] = system: Staphylococcus aureus Terejima; assay: MIC, serial dilution on nutrient agar; type: cell-based; conditions: Staphylococcus aureus Terejima; nutrient agar, 37°C, 18 hours; read-out: Minimum Inhibitory Concentrations
# Sarcina lutea PCI 1001 = assay: MIC, serial dilution on nutrient agar; type: cell-based; conditions: Micrococcus luteus, PCI1001; Sarcina lutea PCI 1001; nutrient agar, 37°C, 18 hours; read-out: Minimum Inhibitory Concentrations
# Bacillus anthracis = assay: microbe, parasite or virus in culture; type: cell-based; conditions: 18 h, read-out: Minimum Inhibitory Concentrations
# [6] = system: Bacillus subtilis PCI 219; assay: MIC, serial dilution on nutrient agar; type: cell-based; conditions: PCI219; Bacillus subtilis PCI 219; nutrient agar, 37°C, 18 hours; read-out: Minimum Inhibitory Concentrations
# [7] = system: Bacillus subtilis NRRL B-558; assay: MIC, serial dilution on nutrient agar; type: cell-based; conditions: NRRLB558; Bacillus subtilis NRRL B-558; nutrient agar, 37°C, 18 hours; read-out: Minimum Inhibitory Concentrations
# [8] = system: Bacillus cereus ATCC 10702; assay: MIC, serial dilution on nutrient agar; type: cell-based; conditions: ATCC10702; Bacillus cereus ATCC 10702; nutrient agar, 37°C, 18 hours; read-out: Minimum Inhibitory Concentrations
# [9] = system: Corynebacterium bovis 1810; assay: MIC, serial dilution on nutrient agar; type: cell-based; conditions: Corynebacterium bovis 1810; nutrient agar, 37°C, 18 hours; read-out: Minimum Inhibitory Concentrations
# [10] = system: Mycobacterium smegmatis ATCC 607; assay: MIC, serial dilution on nutrient agar; type: cell-based; conditions: Mycolicibacterium smegmatis, ATCC607; Mycobacterium smegmatis ATCC 607; nutrient agar, 37°C, 18 hours; read-out: Minimum Inhibitory Concentrations
# [11] = system: Shigella dysenteriae JS 11910; assay: MIC, serial dilution on nutrient agar; type: cell-based; conditions: JS11910, 18 h, read-out: Minimum Inhibitory Concentrations
# [12] = system: Escherichia coli K-12 ML 1630; assay: MIC, serial dilution on nutrient agar; type: cell-based; conditions: K12ML1630, 37°C, 18 hours, read-out: Minimum Inhibitory Concentrations
# Description: (§1) The minimum inhibitory concentrations (mcg/ml) of 1,2'-di-N-[(S)-4-amino-2-hydroxybutyryl]-kanamycin B (abbreviated as 1,2'-AHB-KMB), 1,2'-di-N-[(S)-4-amino-2-hydroxybutyryl]-3',4'-dideoxykanamycin B (abbreviated as 1,2'-AHB-DKB), 1,2'-di-N-DL-isoseryl-3',4'-dideoxykanamycin B (abbreviated as 1,2'-IS-DKB) and 1,2'-di-N-DL-isoseryl-kanamycin B (abbreviated as 1,2'-IS-KMB) against various microorganisms were determined according to serial dilution method using nutrient agar medium at 37°C, the estimation being effected after 18 hours incubation. For comparison, the minimum inhibitory concentrations of kanamycin B (abbreviated as KMB) and 3',4'-dideoxykanamycin B (abbreviated as DKB) were also determined in the same manner as mentioned above.
# [13] = system: Shigella flexneri 4b JS 11811; assay: MIC, serial dilution on nutrient agar; type: cell-based; conditions: 4BJS11811, 37°C, 18 hours, read-out: Minimum Inhibitory Concentrations
# Description: as §1
# Shigella sonnei JS 11746 = assay: MIC, serial dilution on nutrient agar; type: cell-based; conditions: JS11746, 37°C, 18 hours, read-out: Minimum Inhibitory Concentrations
# Description: as §1
# Salmonella typhosa T-63 = assay: MIC, serial dilution on nutrient agar; type: cell-based; conditions: Salmonella enterica, 18 h, read-out: Minimum Inhibitory Concentrations
# [14] = system: Salmonella enteritidis 1891; assay: MIC, serial dilution on nutrient agar; type: cell-based; conditions: Salmonella enterica, ENTERITIDIS, 18 h, read-out: Minimum Inhibitory Concentrations
# Proteus vulgaris OX 19 = assay: MIC, serial dilution on nutrient agar; type: cell-based; conditions: OX19; Proteus vulgaris OX 19; nutrient agar, 37°C, 18 hours; read-out: Minimum Inhibitory Concentrations
# [15] = system: Klebsiella pneumoniae PCI 602; assay: MIC, serial dilution on nutrient agar; type: cell-based; conditions: PCI602; Klebsiella pneumoniae PCI 602; nutrient agar, 37°C, 18 hours; read-out: Minimum Inhibitory Concentrations
# [16] = system: Klebsiella pneumoniae 22 -3038; assay: MIC, serial dilution on nutrient agar; type: cell-based; conditions: 223038; Klebsiella pneumoniae 22 -3038; nutrient agar, 37°C, 18 hours; read-out: Minimum Inhibitory Concentrations
# Escherichia coli NIHJ = assay: MIC, serial dilution on nutrient agar; type: cell-based; conditions: Escherichia coli NIHJ; nutrient agar, 37°C, 18 hours; read-out: Minimum Inhibitory Concentrations
# Escherichia coli K-12 = assay: MIC, serial dilution on nutrient agar; type: cell-based; conditions: K12; Escherichia coli K-12; nutrient agar, 37°C, 18 hours; read-out: Minimum Inhibitory Concentrations
# [17] = system: Escherichia coli K-12 ML 1629; assay: MIC, serial dilution on nutrient agar; type: cell-based; conditions: K12ML1629; Escherichia coli K-12 ML 1629; nutrient agar, 37°C, 18 hours; read-out: Minimum Inhibitory Concentrations
# [18] = system: Escherichia coli K-12 ML 1410; assay: MIC, serial dilution on nutrient agar; type: cell-based; conditions: Escherichia coli, K12ML1410, 18 h, read-out: Minimum Inhibitory Concentrations
# [19] = system: Escherichia coli K-12 ML 1410 R81; assay: MIC, serial dilution on nutrient agar; type: cell-based; conditions: 18 h, read-out: Minimum Inhibitory Concentrations
# [20] = system: Escherichia coli LA290 R55; assay: MIC, serial dilution on nutrient agar; type: cell-based; conditions: LA290R55, 18 h, read-out: Minimum Inhibitory Concentrations
# [21] = system: Escherichia coli LA290 R56; assay: MIC, serial dilution on nutrient agar; type: cell-based; conditions: LA290R56, 18 h, read-out: Minimum Inhibitory Concentrations
# [22] = system: Escherichia coli LA290 R64; assay: MIC, serial dilution on nutrient agar; type: cell-based; conditions: LA290R64, 18 h, read-out: Minimum Inhibitory Concentrations
# Escherichia coli W677 = assay: MIC, serial dilution on nutrient agar; type: cell-based; conditions: Escherichia coli W677; nutrient agar, 37°C, 18 hours; read-out: Minimum Inhibitory Concentrations
# [23] = system: Escherichia coli JR66/W677; assay: MIC, serial dilution on nutrient agar; type: cell-based; conditions: Escherichia coli JR66/W677; nutrient agar, 37°C, 18 hours; read-out: Minimum Inhibitory Concentrations
# [24] = system: Pseudomonas aeruginosa A3; assay: MIC, serial dilution on nutrient agar; type: cell-based; conditions: Pseudomonas aeruginosa, A3, 18 h, read-out: Minimum Inhibitory Concentrations
# [25] = system: Pseudomonas aeruginosa No.12; assay: MIC, serial dilution on nutrient agar; type: cell-based; conditions: Pseudomonas aeruginosa No.12; nutrient agar, 37°C, 18 hours; read-out: Minimum Inhibitory Concentrations
# [26] = system: Pseudomonas aeruginosa TI-13; assay: MIC, serial dilution on nutrient agar; type: cell-based; conditions: Pseudomonas aeruginosa, TI13, 18 h, read-out: Minimum Inhibitory Concentrations
# [27] = system: Pseudomonas aeruginosa GN315; assay: MIC, serial dilution on nutrient agar; type: cell-based; conditions: Pseudomonas aeruginosa GN315; nutrient agar, 37°C, 18 hours; read-out: Minimum Inhibitory Concentrations
# [28] = system: Pseudomonas aeruginosa 99; assay: MIC, serial dilution on nutrient agar; type: cell-based; conditions: Pseudomonas aeruginosa 99; nutrient agar, 37°C, 18 hours; read-out: Minimum Inhibitory Concentrations
# [29] = system: kanamycin-resistant strains; conditions: strains phosphorylating the 3'-hydroxyl group of kanamycins; cited from earlier work
# [30] = system: Escherichia coli JR66/W677; conditions: strain adenylylating the 2"-hydroxyl group; cited from earlier work
# drug-resistant bacteria = conditions: cited from earlier work
structure (smiles),measurement,setting,value
"NCC[C@H](O)C(=O)N[C@@H]1C[C@H](N)[C@@H](O[C@H]2O[C@H](CN)[C@@H](O)[C@H](O)[C@H]2N)[C@H](O[C@@H]2O[C@H](CO)[C@@H](O)[C@H]2O)[C@H]1O [butirosin B, 1-N-[(S)-α-hydroxy-γ-amino-n-butyryl]-ribostamycin]",activity against kanamycin-resistant bacteria,[1],active
same,activity against ribostamycin-resistant bacteria,[2],active
"NC[C@@H]1CC[C@@H](N)[C@@H](O[C@H]2[C@H](O)[C@@H](O[C@H]3O[C@H](CO)[C@@H](O)[C@H](N)[C@H]3O)[C@H](N)C[C@@H]2N)O1 [DKB, 3',4'-dideoxykanamycin B, reference compound]",MIC,[3],< 0.2 µg/mL
same,MIC,[4],< 0.2 µg/mL
same,MIC,[5],< 0.2 µg/mL
same,MIC,Sarcina lutea PCI 1001,6.25 µg/mL
same,MIC,Bacillus anthracis,< 0.2 µg/mL
same,MIC,[6],< 0.2 µg/mL
same,MIC,[7],< 0.2 µg/mL
same,MIC,[8],0.78 µg/mL
same,MIC,[9],3.13 µg/mL
same,MIC,[10],0.39 µg/mL
same,MIC,[11],1.56 µg/mL
same,MIC,[12],0.78 µg/mL
same,MIC,[13],1.56 µg/mL
same,MIC,Shigella sonnei JS 11746,0.78 µg/mL
same,MIC,Salmonella typhosa T-63,< 0.2 µg/mL
same,MIC,[14],1.56 µg/mL
same,MIC,Proteus vulgaris OX 19,< 0.2 µg/mL
same,MIC,[15],0.39 µg/mL
same,MIC,[16],100 µg/mL
same,MIC,Escherichia coli NIHJ,0.39 µg/mL
same,MIC,Escherichia coli K-12,0.78 µg/mL
same,MIC,[17],0.78 µg/mL
same,MIC,[18],1.56 µg/mL
same,MIC,[19],1.56 µg/mL
same,MIC,[20],50 µg/mL
same,MIC,[21],12.5 µg/mL
same,MIC,[22],6.25 µg/mL
same,MIC,Escherichia coli W677,0.2 µg/mL
same,MIC,[23],50 µg/mL
same,MIC,[24],1.56 µg/mL
same,MIC,[25],0.78 µg/mL
same,MIC,[26],1.56 µg/mL
same,MIC,[27],> 100 µg/mL
same,MIC,[28],3.13 µg/mL
same,effectiveness against kanamycin-resistant strains,[29],actually effective
same,activity against kanamycin-resistant strains such as Escherichia coli JR66/W677,[30],practically inactive
same,antibacterial activity against the drug-resistant bacteria,drug-resistant bacteria,improved antibacterial activity
